Where “and” joins values, the source holds several entries; their conditions need not be identical. Equal entries are not always repeated. Entries after “also recorded” stand apart in the source; their conditions may differ. Where two headings read alike, the source gives them in different places.
Experiments:
E. coli WbbL [1] = target: T1, E. coli WbbL (Escherichia coli, UniProt P36667); experiment: In vitro inhibition assay of E. coli WbbL with monosaccharides and compound 2; format: biochemical; details: 250 µM dTDP-β-L-Rha, 1 mM GlcNAc-PP-undecaprenol
Procedure: Primers were purchased from Invitrogen and sequencing was completed by GENEWIZ (Azenta) or EtonBio. Chemicals were purchased from Sigma Aldrich, CarboSynth, Fisher Scientific, and Cayman without further purification. 1H, 13C, and 31P NMR spectra were recorded on a Bruker Avance III 400, 500, or 600 MHz instrument. All spectra were calibrated using residual non-deuterated solvent as an internal reference and processed using MestReNova (authorized to NYU). Gel filtration purification and analyses was performing using at AKTA pure 15 L instrument (UNICORN™ software, GE Healthcare). HRMS analyses were acquired on an Agilent 6224 Accurate-Mass time-of-flight LC/MS (LC-TOF) spectrometer equipped with an electrospray ionization (ESI) source with an autosampler. GraphPad Prism software 9.0 was used for all plotting and data analysis unless otherwise noted. Statistical significance of grouped data was assessed using paired t-tests in Prism. For the IC50 calculation, data were fit in Prism using the equation log(inhibitor) versus response (three parameters): y = bottom + (top-bottom)/(1+10^(X-log IC50)) based on the assumption the Hill slope would be 1, as predicted by ITC results with n ~ 1 for donor ligands. Data was normalized to controls without enzyme and with no inhibitor added. Confidence intervals were calculated based on the standard error. 1M TEAB buffer was prepared by suspending triethylamine (1 mol, 139 mL) in water (700 mL) and passing carbon dioxide (from evaporated dry ice) through the mixture until the pH=7.5. The buffer was diluted to 1L and stored as a stock solution at 4 °C. Prior to use it was diluted to 50 mM in deionized H2O […]
Methods for protein and cellular biochemistry/bioinformatics used in this study.
Bioinformatic approach to identify Thermus thermophilus RfbF as a putative glycolipid RT.
The Carbohydrate-Active Enzymes Database (CAZy.org) was used to identify thermophilic organisms with annotated glycosyltransferases (GTs).11-12 Genes annotated as wbbL have been experimentally shown to encode dTDP-rhamnosyltransferases that transfer L-Rha onto N-acetyl--a-D-glucosamine-1-diphospholipid acceptors.13-14 In Shigella flexneri, the protein encoded by rfbF was noted to carry out the same biochemical activity as WbbL based on genetic and LPS analyses.15-16 Both E. coli WbbL and S. flexneri RfbF belong to the GT2 family. A CAZy search for rfbF and wbbL was performed in the genomes of Gram-negative extreme thermophiles, which […]
(GenBank: AAS80876.1), which had not yet been biochemically characterized. Protein ANalysis […]
(§1) thermodynamic values were evaluated using ITCRun software (TA Instruments) and fit with a […]
Specific activities were determined by modification of the protocol outlined by Li et al. […]

E. coli WbbL [2] = target: T1, E. coli WbbL; experiment: Specific activity assay of rhamnosyltransferase (HPLC, rSAP-coupled), E. coli WbbL membrane fraction; format: biochemical; details: native donor dTDP-β-L-Rha, t = 1 h
Procedure: as §1
Specific activity assays for bacterial rhamnosyltransferases from different species.
Specific activities were determined by modification of the protocol outlined by Li et al.
Specifically, 0.155 mg/mL RfbF, 0.081 mg/mL E. coli WbbL, or 0.111 mg/mL Mtb WbbL were used to initiate the following reaction mixtures: 25 mM Tris-HCl pH 7.5, 1 mM GlcNAc-PP-lipid, 1 mM donor-substrate, 5 mM MgCl2, 1 U rSAP (1000 U/mL stock solution), 1% (v/v) Triton X-100, 5% (v/v) DMSO (for reactions containing C55, C20, C15 lipid) or MeOH (for reactions containing C35 lipid) in a total volume of 20 µL. […]
Consumption of NDP-sugar donors was monitored on reverse phase HPLC equipped with a Phenomenex 5 µm, 21.2 x 150 mm, NX-C18 Å Gemini column with solvent A (50 mM TEAB pH 8.0) and solvent B (acetonitrile) using the following linear gradient: 0% B (t = 0-5 min), 0-5% B (t = 5-25 min), 5-90% B (t = 25-35 min). Absorbance at wavelength (l) = 254 nm was monitored.
Consumption was quantified by integration of dTDP-sugar donors relative to the total amount of thymidine-containing products, which was then subtracted from the starting dTDP-sugar concentration at the t = 0 time point. […] Characterization of each reaction was monitored by scanning in the negative ion mode and analyzed using Agilent MassHunter […]

T. thermophilus RfbF = T. thermophilus RfbF (Thermus thermophilus, UniProt Q72KB9); experiment: Isothermal titration calorimetry (ITC) binding measurements with RfbF; details: ITC
[3] = tested on: WbbL-dependent O-Ag synthesis in E. coli expressing wbbL; format: cell-based, Escherichia coli
[4] = tested on: E. coli cells with or without wbbL; experiment: Growth inhibition / toxicity of 2 with E. coli (OD600); details: ~2 mM / low millimolar concentrations of 2, E. coli +/- wbbL
crude Mtb WbbL = details: cited from earlier work
[5] = 25 °C, ligand titrated into 110 µM RfbF

Sequence of T. thermophilus RfbF (Q72KB9 entry or part of it): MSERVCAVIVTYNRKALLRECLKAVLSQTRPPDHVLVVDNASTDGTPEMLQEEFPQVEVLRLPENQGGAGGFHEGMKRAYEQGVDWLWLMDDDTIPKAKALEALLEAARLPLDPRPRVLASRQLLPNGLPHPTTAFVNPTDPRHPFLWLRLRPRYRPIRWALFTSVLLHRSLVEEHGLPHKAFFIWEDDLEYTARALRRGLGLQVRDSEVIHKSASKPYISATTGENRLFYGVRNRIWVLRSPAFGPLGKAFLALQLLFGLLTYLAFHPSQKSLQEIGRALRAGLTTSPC
T1 sequence (P36667 whole entry, looked up): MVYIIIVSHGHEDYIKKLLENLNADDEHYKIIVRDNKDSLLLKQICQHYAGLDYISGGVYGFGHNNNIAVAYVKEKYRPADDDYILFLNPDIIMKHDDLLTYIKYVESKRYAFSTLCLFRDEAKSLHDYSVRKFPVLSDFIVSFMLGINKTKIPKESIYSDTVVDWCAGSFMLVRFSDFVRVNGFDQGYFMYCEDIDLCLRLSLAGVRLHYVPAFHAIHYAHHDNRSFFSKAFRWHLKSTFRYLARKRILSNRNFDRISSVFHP

**Q.** With `OC[C@@H]1OC(O)[C@H](O)[C@H](O)[C@H]1O` (stereo partly drawn) [L-Man, L-Mannose, reference compound] as the compound, how does the “inhibition of E. coli WbbL” value (E. coli WbbL [1]; 5 mM inhibitor, 8 min) read?
**A.** Lack of inhibition

**Q.** Which “turnover as noncanonical acceptor with the native donor” value (E. coli WbbL [2]) does the source give for `N[C@@H](CO)C(=O)O` [Ser] here?
**A.** no turnover

**Q.** Which ΔG (T. thermophilus RfbF; [5]) does the source give for `CC(=O)NC1C(OP(=O)(O)OP(=O)(O)OCC2OC(n3ccc(=O)[nH]c3=O)C(O)C2O)OC(CO)C(O)C1O` [UDP-α-D-GlcNAc, UDP-a-N-acetyl-D-glucosamine, reference compound] here?
**A.** N/B

**Q.** And the ΔH (T. thermophilus RfbF; [5])?
**A.** N/B

**Q.** And the ΔS (T. thermophilus RfbF; [5])?
**A.** N/B

**Q.** And the KD (T. thermophilus RfbF; 25 °C, ligand titrated into 110 µM RfbF, one-site model, spread = SD, triplicate)?
**A.** N/B

**Q.** And the “binding to RfbF by ITC (in words)” value (T. thermophilus RfbF; ligand titrated into 110 µM RfbF, listed as UDP-a-D-GlcNAc)?
**A.** no

**Q.** And the “binding to RfbF by ITC (in words)” value (T. thermophilus RfbF; ligand titrated into 110 µM RfbF, listed as UDP-α-GlcNAc)?
**A.** did not bind at μM concentrations

**Q.** What about the “turnover as noncanonical acceptor with the native donor” value (E. coli WbbL [2]; listed as UDP-α-GlcNAc) of the same compound?
**A.** no turnover; also recorded: not used as an acceptor

**Q.** For `C[C@@H]1NC[C@H](O)[C@H](O)[C@H]1O` [compound 2, 1,5-dideoxy-1,5-imino-L-rhamnitol], which “binding to RfbF by ITC (in words)” value (T. thermophilus RfbF; ligand titrated into 110 µM RfbF) is on record?
**A.** no measurable binding

**Q.** And the Kd (T. thermophilus RfbF; KD (beyond measurable limit), 5-10 mM ligand titrated into 110 µM RfbF)?
**A.** > 1000 µM

**Q.** And the IC50 (E. coli WbbL [1]; 0.0101 mg/mL E. coli WbbL, 95% confidence interval, read-out: half maximal inhibitory concentration (IC50))?
**A.** ~3000 µM and 3160 µM

**Q.** And the inhibition at 5000 µM (E. coli WbbL [1]; 5 mM inhibitor, 8 min)?
**A.** ~53%

**Q.** And the “reduction of O-Ag levels by densitometry” value ([3]; E. coli expressing wbbL grown with 2 versus untreated, silver stain / anti-O16 blot of purified LPS)?
**A.** ~40%

**Q.** And the “reduction of LPS produced versus untreated cells” value ([3]; E. coli expressing wbbL grown with ~2 mM 2, equivalent number of cells, mass of extracted LPS)?
**A.** > 50%

**Q.** What about the “toxicity to E. coli (growth, OD600)” value [4] of the same compound?
**A.** not toxic

**Q.** Which Km (crude Mtb WbbL) does the source give for `Cc1cn(C2CC(O)C(COP(=O)(O)OP(=O)(O)OC3OC(C)C(O)C(O)C3O)O2)c(=O)[nH]c1=O` [dTDP-β-L-Rha, reference compound] here?
**A.** ~35 µM

**Q.** What about the ΔG (T. thermophilus RfbF; [5]) of the same compound?
**A.** -6.77 (.38) kcal/mol

**Q.** And the ΔH (T. thermophilus RfbF; [5])?
**A.** -8.68 (0.59) kcal/mol

**Q.** What about the ΔS (T. thermophilus RfbF; [5]) of the same compound?
**A.** -6.43 (0.68) cal/mol·K

**Q.** And the Kd (T. thermophilus RfbF; 25 °C, ligand titrated into 110 µM RfbF, one-site model, spread = SD, triplicate, read-out: KD)?
**A.** ~8 µM

**Q.** And the Kd (T. thermophilus RfbF; KD, 25 °C, ligand titrated into 110 µM RfbF, one-site model, spread = SD, triplicate)?
**A.** 8.31 ± 3.66 µM

**Q.** Which “inhibition of E. coli WbbL” value (E. coli WbbL [1]; 5 mM inhibitor, 8 min) does the source give for L-rhamnose [reference compound] here?
**A.** 38%

From paper PMC10375533, “Preference of Bacterial Rhamnosyltransferases for 6-Deoxysugars Reveals a Strategy To Deplete O-Antigens” (Journal of the American Chemical Society, 2023)
